Source: US20050032908A1, “Methods for treating metabolic syndrome” (priority 2003, published 2005)
Where two headings read alike, the source gives them in different places.

Assays:
[1] = Pooled analysis of double-blind, placebo-controlled, non-diabetic studies of at least 6 months duration in subjects with metabolic syndrome at baseline; type: in vivo, human; settings: compared to placebo; change from baseline to latest assessment after month 6 up to month 12
Source text: (§1) The benefits of sibutramine therapy can be extended to subjects with metabolic syndrome. The treatment effect of sibutramine on subjects that had metabolic syndrome at study entry in the STORM trial and by a pooled analysis of double-blind, placebo-controlled, non-diabetic studies of at least 6 months duration were studied. Subjects were identified who had increased abdominal obesity (waist circumference), decreased HDL cholesterol, and elevated triglycerides (TG) at baseline, and who also completed at least 6 months of sibutramine treatment (pooled analysis subjects: 266 sibutramine, 134 placebo; STORM: 80 sibutramine). Since all subjects in the STORM trial received sibutramine for the first 6 months of the study, only subjects subsequently randomized to receive sibutramine for a longer duration were included. The analyses for each variable were based on change from baseline to latest assessment after month 6, up to and including month 12.

[2] = STORM trial subjects that had metabolic syndrome at study entry; type: in vivo, human; settings: sibutramine treatment group, 80 subjects; change from baseline to latest assessment after month 6 up to month 12
Source text: as §1

[3] = cited from earlier work
[4] = compared to placebo; cited from earlier work
[5] = subjects who lost and maintained weight, compared to the baseline values of all subjects

For `CC(C)CC(N(C)C)C1(c2ccc(Cl)cc2)CCC1` (centres unmarked) [sibutramine, N,N-dimethyl-1-[1-(4-chlorophenyl)cyclobutyl]-3-methylbutylamine], the HDL [1] was “clinically and statistically significant improvements”, the TG [1] was “clinically and statistically significant improvements” and the waist circumference [1] was “clinically and statistically significant improvements”. For the same compound, the weight loss [1] was “clinically and statistically significant improvements”, the HDL [2] was “favorable changes” and the TG [2] was “favorable changes”. For the same compound, the waist circumference [2] was “favorable changes”, the weight loss [2] was “favorable changes” and the “subjects who maintained ≧10% weight reduction” value ([3]; at the end of two years of treatment, placebo 21%) was 46%. The “subjects who maintained ≧5% weight reduction” value ([3]; at the end of two years of treatment, placebo 44%) was 69%, the “mean fasting insulin levels” value ([3]; at two years) was “reduced” and the “subjects who completed the trial and maintained at least 80% of their month six weight loss” value ([3]; at two years, placebo 16%) was 43%. For the same compound, the mean weight loss ([3]; first six months, subjects achieving ≧5% weight reduction) was 26 lbs, the “subjects who achieved a ≧5% weight reduction” value ([3]; of the 499 subjects who completed the first six months, sibutramine with reduced calorie diet and increased physical activity) was 94% and the HDL cholesterol [3, 5] was “clinically and statistically significant improvements”. For the same compound, the triglycerides [3, 5] was “clinically and statistically significant improvements”, the waist circumference [3, 5] was “clinically and statistically significant improvements” and the impaired fasting glucose ([3]; two years) was “significantly changed”. For the same compound, the HDL cholesterol [4] was “significant improvements”, the “fasting blood glucose levels” value [4] was “not significantly changed” and the insulin levels [4] was “significant improvements”. For the same compound, the triglyceride levels [4] was “significant improvements” and the “waist circumference (a measure for abdominal obesity)” value [4] was “significant improvements”.
